Four compounds from ChEMBL document CHEMBL1158245, “Antifungal and molluscicidal saponins from Serjania salzmanniana” (J Nat Prod, 1996) can be followed below.

For series [1], the system named is Biomphalaria alexandrina. The experiment in a line: Molluscicidal activity against Biomphalaria alexandrina assessed as number of dead snail at 20 ppm after 24 hrs allowed to recover for an additional 24 hrs. Format: organism-based. As to conditions: in vivo; call rule not given here.
The subject of series [2] is Biomphalaria alexandrina. The experiment in a line: Molluscicidal activity against Biomphalaria alexandrina assessed as number of dead snail at 10 ppm after 48 hrs. Format: organism-based. As to conditions: in vivo.
The subject of series [3] is Biomphalaria alexandrina. The experiment in a line: Molluscicidal activity against Biomphalaria alexandrina assessed as number of dead snail at 20 ppm after 48 hrs. Format: organism-based. The settings on record: in vivo.
The subject of series [4] is Biomphalaria alexandrina. As to the kind of experiment: Molluscicidal activity against Biomphalaria alexandrina assessed as number of dead snail at 10 ppm after 24 hrs. Format: organism-based. The settings on record: in vivo.
The test system of series [5] is Biomphalaria alexandrina. As to the kind of experiment: Molluscicidal activity against Biomphalaria alexandrina assessed as number of dead snail at 10 ppm after 24 hrs allowed to recover for an additional 24 hrs. Format: organism-based. As to conditions: in vivo.
The test system of series [6] is Biomphalaria alexandrina. As to the kind of experiment: Molluscicidal activity against Biomphalaria alexandrina assessed as number of dead snail at 20 ppm after 24 hrs. Format: organism-based. The settings on record: in vivo.
Another series concerns Cryptococcus neoformans. The experiment in a line: Antifungal activity against Cryptococcus neoformans ATCC 36556 after 48 hrs by microplate broth assay. Format: functional. As to conditions: ATCC 36556, 48 h.
Another series deals with Candida albicans. As to the kind of experiment: Antifungal activity against Candida albicans ATCC 10259 after 24 hrs by microplate broth assay. Format: functional. The settings on record: ATCC 10259, 24 h.
The test system of another series is Aspergillus fumigatus. As to the kind of experiment: Antifungal activity against Aspergillus fumigatus ATCC 13073 after 48 hrs by microplate broth assay. The settings on record: ATCC 13073, 48 h. Format: functional.

Take `C[C@@H]1O[C@@H](O[C@H]2[C@H](O[C@H]3CC[C@]4(C)[C@H]5CC=C6[C@@H]7CC(C)(C)CC[C@]7(C(=O)O)CC[C@@]6(C)[C@]5(C)CC[C@H]4C3(C)C)OC[C@H](O[C@@H]3O[C@H](CO)[C@@H](O)[C@H](O)[C@H]3O)[C@@H]2O)[C@H](O)[C@H](O)[C@H]1O` [HEDERACOLCHISIDE A1]: the Activity result with Biomphalaria alexandrina [1] is “Active”; in the series with Biomphalaria alexandrina [2], 100%; in the series with Biomphalaria alexandrina [3] it was 100%; in the series with Biomphalaria alexandrina [4], “Active”; with Biomphalaria alexandrina [5], “Active”; with Biomphalaria alexandrina [6] it was “Active”.
With `C[C@@H]1O[C@@H](O[C@H]2[C@H](O[C@H]3CC[C@@]4(C)[C@@H](CC[C@]5(C)[C@@H]4CC=C4[C@@H]6CC(C)(C)CC[C@]6(C(=O)O)CC[C@]45C)[C@]3(C)CO)OC[C@H](O[C@@H]3O[C@H](CO)[C@@H](O)[C@H](O)[C@H]3O)[C@@H]2O)[C@H](O)[C@H](O)[C@H]1O` [HEDERACOLCHISIDE A], the minimal inhibitory concentration (MIC) in the series on Cryptococcus neoformans was no more than 8 µg/mL; against Candida albicans, no more than 16 µg/mL; in the series on Aspergillus fumigatus, no less than 250 µg/mL. Also, the Activity entry in the series with Biomphalaria alexandrina [1] is “Active”; in the series on Biomphalaria alexandrina [2], 90%; in the series with Biomphalaria alexandrina [3], 100%; in the series with Biomphalaria alexandrina [6], “Active”.
As for `C[C@@H]1O[C@@H](O[C@H]2[C@H](O[C@H]3CC[C@]4(C)[C@H]5CC=C6[C@@H]7CC(C)(C)CC[C@]7(C(=O)O)CC[C@@]6(C)[C@]5(C)CC[C@H]4[C@]3(C)C=O)OC[C@H](O[C@@H]3O[C@H](CO)[C@@H](O)[C@H](O)[C@H]3O)[C@@H]2O)[C@H](O)[C@H](O)[C@H]1O` [SALZMANNIANOSIDE A], the minimal inhibitory concentration (MIC) against Cryptococcus neoformans is no more than 8 µg/mL; against Candida albicans, no more than 16 µg/mL; against Aspergillus fumigatus, no less than 125 µg/mL. Besides, the Activity result in the series with Biomphalaria alexandrina [1] is “Active”; in the series on Biomphalaria alexandrina [2], 0%; in the series on Biomphalaria alexandrina [3], 100%; with Biomphalaria alexandrina [4], “Not Active”; in the series on Biomphalaria alexandrina [5], “Not Active”; in the series on Biomphalaria alexandrina [6], “Active”.
Consider `C[C@@H]1O[C@@H](O[C@H]2[C@H](O[C@H]3CC[C@@]4(C)[C@@H](CC[C@]5(C)[C@@H]4CC=C4[C@@H]6CC(C)(C)CC[C@]6(C(=O)O)CC[C@]45C)[C@]3(C)CO)OC[C@H](O[C@@H]3O[C@H](CO)[C@@H](O)[C@H](O)[C@H]3O)[C@@H]2O)[C@H](O)[C@H](O[C@@H]2OC[C@H](O)[C@H](O)[C@H]2O)[C@H]1O` [SALZMANNIANOSIDE B], for which the results for the MIC against Cryptococcus neoformans, with Candida albicans and against Aspergillus fumigatus were no more than 8 µg/mL, no less than 125 µg/mL and no less than 250 µg/mL, respectively. The values for the Activity in the series with Biomphalaria alexandrina [2], in the series on Biomphalaria alexandrina [3] and in the series on Biomphalaria alexandrina [5] were 100%, 70% and “Active”, respectively.
